Reference: ChEMBL document CHEMBL3351608, “2-Phenylindole and Arylsulphonamide: Novel Scaffolds Bactericidal against Mycobacterium tuberculosis” (ACS Med Chem Lett, 2014)
pIC50: −log10 of the molar value. Values after ≈ are worked out from the molar mass of the structure shown.

Columns and labels:
[1] = system: Mycobacterium tuberculosis; test: microbe, parasite or virus in culture; conditions: H37Rv, 120 h
Description: Antimicrobial activity against wild-type Mycobacterium tuberculosis H37Rv assessed as growth inhibition after 5 days by microdilution method

[2] = system: Mycobacterium tuberculosis; test: microbe, parasite or virus in culture; conditions: 120 h
Description: Antimicrobial activity against Mycobacterium tuberculosis assessed as growth inhibition after 5 days by microdilution method

[3] = Lipophilicity, log D of the compound; type: physicochemical; conditions: octanol/water
[4] = Aqueous solubility of the compound; type: physicochemical; conditions: buffer
Pseudomonas aeruginosa = test: Antimicrobial activity against Pseudomonas aeruginosa; type: functional
[5] = biological target: DNA gyrase subunit A/DNA gyrase subunit B (Mycobacterium tuberculosis (strain ATCC 25618 / H37Rv), UniProt P9WG45+P9WG47)
Chain of DNA gyrase subunit A/DNA gyrase subunit B (P9WG45 whole entry): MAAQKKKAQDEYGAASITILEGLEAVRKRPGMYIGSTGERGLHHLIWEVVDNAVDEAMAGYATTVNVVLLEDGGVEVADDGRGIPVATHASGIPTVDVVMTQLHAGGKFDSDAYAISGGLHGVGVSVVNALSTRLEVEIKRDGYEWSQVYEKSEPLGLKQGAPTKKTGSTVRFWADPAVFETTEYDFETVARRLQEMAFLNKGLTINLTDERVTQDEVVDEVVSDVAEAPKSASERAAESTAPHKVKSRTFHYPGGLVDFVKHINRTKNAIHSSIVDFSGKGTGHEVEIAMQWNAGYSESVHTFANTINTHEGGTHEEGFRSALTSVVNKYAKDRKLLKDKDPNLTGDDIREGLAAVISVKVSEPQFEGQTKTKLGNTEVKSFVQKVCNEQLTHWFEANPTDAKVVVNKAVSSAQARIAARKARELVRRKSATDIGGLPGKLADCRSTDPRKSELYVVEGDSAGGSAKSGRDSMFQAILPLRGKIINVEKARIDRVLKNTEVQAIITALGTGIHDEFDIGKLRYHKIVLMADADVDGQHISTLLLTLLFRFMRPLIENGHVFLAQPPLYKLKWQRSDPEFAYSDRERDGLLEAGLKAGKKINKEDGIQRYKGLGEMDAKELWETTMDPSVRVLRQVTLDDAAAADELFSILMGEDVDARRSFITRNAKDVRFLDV
Chain of DNA gyrase subunit A/DNA gyrase subunit B (P9WG47 whole entry): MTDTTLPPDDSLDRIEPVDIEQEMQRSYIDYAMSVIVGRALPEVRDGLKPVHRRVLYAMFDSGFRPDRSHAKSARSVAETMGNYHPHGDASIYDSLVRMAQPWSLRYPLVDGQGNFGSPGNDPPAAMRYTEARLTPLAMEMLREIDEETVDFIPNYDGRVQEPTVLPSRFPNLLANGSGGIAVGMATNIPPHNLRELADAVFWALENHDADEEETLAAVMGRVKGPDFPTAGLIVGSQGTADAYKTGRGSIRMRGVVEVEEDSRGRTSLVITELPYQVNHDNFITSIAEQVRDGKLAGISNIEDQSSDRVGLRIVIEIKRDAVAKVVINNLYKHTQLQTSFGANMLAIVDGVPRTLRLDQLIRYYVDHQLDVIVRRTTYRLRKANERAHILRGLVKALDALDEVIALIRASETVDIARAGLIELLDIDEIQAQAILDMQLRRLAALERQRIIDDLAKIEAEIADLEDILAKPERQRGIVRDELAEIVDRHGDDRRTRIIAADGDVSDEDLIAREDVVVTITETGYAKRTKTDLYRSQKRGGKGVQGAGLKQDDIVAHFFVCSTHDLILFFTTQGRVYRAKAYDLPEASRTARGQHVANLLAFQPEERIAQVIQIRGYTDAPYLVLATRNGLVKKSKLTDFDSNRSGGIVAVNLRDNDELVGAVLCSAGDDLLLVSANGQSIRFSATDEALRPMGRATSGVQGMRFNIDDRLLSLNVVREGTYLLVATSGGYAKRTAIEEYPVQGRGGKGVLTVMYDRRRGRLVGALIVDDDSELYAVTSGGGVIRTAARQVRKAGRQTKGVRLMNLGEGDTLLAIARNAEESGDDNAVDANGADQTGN
Description: Inhibition of Mycobacterium tuberculosis DNA gyrase-mediated relaxed pBR322 DNA supercoiling by gel electrophoresis

[6] = system: Mycolicibacterium smegmatis; test: Inhibition of oxidative phosphorylation in Mycobacterium smegmatis membrane vesicles assessed as inhibition of NADH driven ATP synthesis by luciferin/luciferase assay; type: functional
Haemophilus influenzae = test: Antimicrobial activity against Haemophilus influenzae; type: functional
Staphylococcus aureus = test: Antimicrobial activity against Staphylococcus aureus; type: functional
[7] = biological target: T1, Enoyl-[acyl-carrier-protein] reductase [NADH] (Mycobacterium tuberculosis, UniProt P9WGR1)
T1 sequence (P9WGR1 whole entry): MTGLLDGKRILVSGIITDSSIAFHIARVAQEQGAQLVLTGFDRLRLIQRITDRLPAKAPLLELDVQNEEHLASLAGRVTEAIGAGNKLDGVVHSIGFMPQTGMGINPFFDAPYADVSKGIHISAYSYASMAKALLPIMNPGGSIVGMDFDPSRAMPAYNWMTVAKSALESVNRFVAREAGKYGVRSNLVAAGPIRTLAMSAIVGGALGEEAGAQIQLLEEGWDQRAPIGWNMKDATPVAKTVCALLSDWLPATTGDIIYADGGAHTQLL
Description: Inhibition of Mycobacterium tuberculosis InhA using dodecyl coA as substrate by LC-MS/MS analysis

[8] = system: Mycobacterium tuberculosis; type: functional; conditions: 120 h
[9] = system: Mycobacterium tuberculosis; test: Bactericidal activity against Mycobacterium tuberculosis H37Rv after 5 days; type: functional; conditions: 120 h
[10] = Cytotoxicity against human THP1 cells assessed as cell viability after 72 hrs by resazurin staining-based fluorimetric analysis; conditions: THP-1 cells
[11] = system: Mycobacterium tuberculosis; test: Bactericidal activity against Mycobacterium tuberculosis H37Rv infected in human THP1 cells assessed as reduction in CFU at 1 to 4 times MIC by time-kill method; type: functional, THP-1
Streptococcus pneumoniae = test: Antimicrobial activity against Streptococcus pneumoniae; type: functional
[12] = system: Mycobacterium tuberculosis; test: Bactericidal activity against hypoxia induced nonreplicating persistent Mycobacterium tuberculosis H37Rv assessed as concentration required to reduce >/= 2 log10 CFU/ml after 7 days; type: functional
Escherichia coli = test: Antimicrobial activity against Escherichia coli; type: functional
Klebsiella pneumoniae = test: Antimicrobial activity against Klebsiella pneumoniae; type: functional

Row | Structure (SMILES) | MIC [1] [µM] | MIC [2] [µM] | logD [3] | solubility [4] [µM] | MIC (Pseudomonas aeruginosa) [µM] | pIC50 [5] | pIC50 [6] | MIC (Haemophilus influenzae) [µM] | MIC (Staphylococcus aureus) [µM] | pIC50 [7] | MIC [8] [µM] | MBC [9] [µM] | CC50 at 72 h [10] [µM] | fold change (FC) [11] | MIC (Streptococcus pneumoniae) [µM] | Activity [12] [µM] | MIC (Escherichia coli) [µM] | MIC (Klebsiella pneumoniae) [µM]
1 | CC1COC2(CCN(c3nc(=O)c4cc(C(F)(F)F)cc([N+](=O)[O-])c4s3)CC2)O1 (stereo not drawn) | 0.01 (≈ 0.00431 µg/mL) | 0.01 (≈ 0.00431 µg/mL) | – | – | – | – | – | – | – | – | – | – | – | – | – | – | – | –
2 | Cc1cccc2c(CN3CCCC3)c(-c3ccccc3)[nH]c12 | – | – | 1.8 | 752 (≈ 218 µg/mL) | – | – | – | – | – | – | – | – | – | – | – | – | – | –
3 | COCCN(C1CCN(Cc2c(-c3ccccc3)[nH]c3c(C)cccc23)C1)S(C)(=O)=O (stereo not drawn) | 0.8 (≈ 0.353 µg/mL) | 0.8 (≈ 0.353 µg/mL) | 3 | 5.4 (≈ 2.38 µg/mL) | > 200 | < 4.00 | 4.81 | > 200 | > 200 | < 4.00 | 0.8 (≈ 0.353 µg/mL) | 3.8 (≈ 1.68 µg/mL) | > 64 | 1.5 | > 200 | 3.1 | > 200 | > 200
4 | COCCN(C1CCN(Cc2c(-c3ccccc3)[nH]c3c(OC)cccc23)C1)S(C)(=O)=O (stereo not drawn) | – | – | 2.8 | 103 (≈ 47.1 µg/mL) | – | – | – | – | – | – | – | – | – | – | – | – | – | –
5 | O=S(=O)(NC1CCN(Cc2ccncc2)CC1)c1ccc(-n2cccn2)cc1 | 3.3 (≈ 1.31 µg/mL) | 1.6 (≈ 0.636 µg/mL) | 2.6 | 149 (≈ 59.2 µg/mL) | > 200 | < 4.00 | < 4.15 | > 200 | > 200 | < 4.00 | 3.3 (≈ 1.31 µg/mL) | 50 (≈ 19.9 µg/mL) | > 64 | – | > 200 | 25 | > 200 | > 200
6 | Cc1cc(-n2cccn2)ccc1S(=O)(=O)NC1CCN(Cc2ccncc2)CC1 | 0.8 (≈ 0.329 µg/mL) | – | 2.3 | 66 (≈ 27.2 µg/mL) | > 200 | – | – | > 200 | > 200 | – | 0.8 (≈ 0.329 µg/mL) | 1.6 (≈ 0.658 µg/mL) | 32 | 1.5 | > 200 | >200 | > 200 | > 200
7 | O=S(=O)(NC1CCN(Cc2ccncc2)CC1)c1ccc(-n2cccn2)cn1 | – | – | 1.7 | 1000 (≈ 398 µg/mL) | – | – | – | – | – | – | – | – | – | – | – | – | – | –
8 | Cc1cccc2c(CN3CCC(NS(C)(=O)=O)C3)c(-c3ccccc3)[nH]c12 (racemic) | 1.6 (≈ 0.614 µg/mL) | – | – | – | > 200 | – | – | > 200 | > 200 | – | 1.6 (≈ 0.614 µg/mL) | 1.6 (≈ 0.614 µg/mL) | 32 | – | > 200 | >200 | > 200 | > 200
9 | COc1nc2ccc(Br)cc2cc1[C@@H](c1ccccc1)[C@@](O)(CCN(C)C)c1cccc2ccccc12 [BEDAQUILINE] | – | – | – | – | – | – | 9.00 | – | – | – | – | – | – | – | – | – | – | –
10 | NNC(=O)c1ccncc1 [ISONIAZID] | 0.5 (≈ 0.0686 µg/mL) | > 7.5 | – | – | – | – | – | – | – | – | – | – | – | – | – | – | – | –
11 | CO[C@H]1/C=C/O[C@@]2(C)Oc3c(C)c(O)c4c(O)c(c(/C=N/N5CCN(C)CC5)c(O)c4c3C2=O)NC(=O)/C(C)=C\C=C\[C@H](C)[C@H](O)[C@@H](C)[C@@H](O)[C@@H](C)[C@H](OC(C)=O)[C@@H]1C [RIFAMPIN] | 0.003 (≈ 0.00247 µg/mL) | 0.003 (≈ 0.00247 µg/mL) | – | – | – | – | – | – | – | – | – | – | – | – | – | – | – | –
